Data as given in patent US9499550B2 (BRISTOL-MYERS SQUIBB COMPANY, priority 2012, dated 2016).
Read-outs that look alike come from different tables or passages of the source.

Experiments:
[1] = test system: HCV genotype 1a (H77 strain) replicon in HUH-7 cells; assay: HCV replicon luciferase reporter assay, genotype 1a; format: cell-based; details: Hepatitis C virus, Huh-7, 72 h, HCV genotype 1a replicon luciferase, 3 days incubation, read-out: LE_1a (EC50, range)
Method in brief: (§1)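 Replicon inhibition for both genotypes was measured as Renilla luciferase signal (EnduRen, 7.5 μM final, 2 h) after 3-day, 37° C exposure of replicon-bearing HUH-7 cells in 4% FCS DMEM, 0.5% DMSO. The 1b construct carries S1179I; the 1a H77 construct carries P1496L and S2204I. Twenty-point, 3-fold dilutions were fitted four-parametrically for EC50, and CC50 was taken from multiplexed Cell Titer-Blue.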

[2] = test system: HCV genotype 1b (Con1) replicon in HUH-7 cells; assay: HCV replicon luciferase reporter assay, genotype 1b; format: cell-based; details: Hepatitis C virus, Huh-7, 72 h, HCV genotype 1b replicon luciferase, 3 days incubation, read-out: LE_1b (EC50, range)
Method in brief: as §1

| SMILES | EC50 [1] [nM] | EC50 [2] [nM] | EC50 ([1]; GETYPE1A) [nM] | EC50 ([2]; GETYPE1B) [nM] |
| --- | --- | --- | --- | --- |
| COc1cnc(O[C@@H]2C[C@H]3C(=O)N[C@]4(C(=O)NS(=O)(=O)C5(CF)CC5)C[C@H]4/C=C\CC[C@@H](C)C[C@@H](C)[C@H](NC(=O)OC(C)(C)C)C(=O)N3C2)c2cc(F)ccc12 [Compound 4082, tert-butyl (2R,6S,7R,9R,13aS,14aR,16aS,Z)-2-(7-fluoro-4-methoxyisoquinolin-1-yloxy)-14a-(1-(fluoromethyl)cyclopropylsulfonylcarbamoyl)-7,9-dimethyl-5,16-dioxo-1,2,3,5,6,7,8,9,10,11,13a,14,14a,15,16,16a-hexadecahydrocyclopropa[e]pyrrolo[1,2-a][1,4]diazacyclopentadecin-6-ylcarbamate] | < 5.46 | < 5.46 | – | – |
| COc1cnc(O[C@@H]2C[C@H]3C(=O)N[C@]4(C(=O)NS(=O)(=O)C5(CF)CC5)C[C@H]4/C=C\CC[C@@H](C)C[C@@H](C)[C@H](NC(=O)OC(C)(C)C(F)(F)F)C(=O)N3C2)c2cc(F)ccc12 [Compound 4083] | – | – | < 5.46 | < 5.46 |
| COc1cc2c(OC)cnc(O[C@@H]3C[C@H]4C(=O)N[C@]5(C(=O)NS(=O)(=O)C6(CF)CC6)C[C@H]5/C=C\CC[C@@H](C)C[C@@H](C)[C@H](NC(=O)OC(C)(C)C)C(=O)N4C3)c2cc1F [Compound 4084, tert-butyl (2R,6S,7R,9R,13aS,14aR,16aS,Z)-2-(7-fluoro-4,6-dimethoxyisoquinolin-1-yloxy)-14a-(1-(fluoromethyl)cyclopropylsulfonylcarbamoyl)-7,9-dimethyl-5,16-dioxo-1,2,3,5,6,7,8,9,10,11,13a,14,14a,15,16,16a-hexadecahydrocyclopropa[e]pyrrolo[1,2-a][1,4]diazacyclopentadecin-6-ylcarbamate] | < 5.46 | < 5.46 | – | – |
| COc1ccc2nc(O[C@@H]3C[C@H]4C(=O)N[C@]5(C(=O)NS(=O)(=O)C6(C)CC6)C[C@H]5/C=C\CC[C@@H](C)C[C@@H](C)[C@H](NC(=O)OC(C)(C)C)C(=O)N4C3)cnc2c1 [Compound 4085, tert-butyl (2R,6S,7R,9R,13aS,14aR,16aS,Z)-2-(6-methoxyquinoxalin-2-yloxy)-7,9-dimethyl-14a-(1-methylcyclopropylsulfonylcarbamoyl)-5,16-dioxo-1,2,3,5,6,7,8,9,10,11,13a,14,14a,15,16,16a-hexadecahydrocyclopropa[e]pyrrolo[1,2-a][1,4]diazacyclopentadecin-6-ylcarbamate] | 4.82 to 103 | < 5.46 | – | – |
| COc1ccc2ncc(O[C@@H]3C[C@H]4C(=O)N[C@]5(C(=O)NS(=O)(=O)C6(C)CC6)C[C@H]5/C=C\CC[C@@H](C)C[C@@H](C)[C@H](NC(=O)OC(C)(C)C)C(=O)N4C3)nc2c1 [Compound 4086, tert-butyl (2R,6S,7R,9R,13aS,14aR,16aS,Z)-2-(7-methoxyquinoxalin-2-yloxy)-7,9-dimethyl-14a-(1-methylcyclopropylsulfonylcarbamoyl)-5,16-dioxo-1,2,3,5,6,7,8,9,10,11,13a,14,14a,15,16,16a-hexadecahydrocyclopropa[e]pyrrolo[1,2-a][1,4]diazacyclopentadecin-6-ylcarbamate] | < 5.46 | < 5.46 | – | – |
| COc1ccc2c(O[C@@H]3C[C@H]4C(=O)N[C@]5(C(=O)NS(=O)(=O)C6(C)CC6)C[C@H]5/C=C\CC[C@@H](C)C[C@@H](C)[C@H](NC(=O)OC(C)(C)C)C(=O)N4C3)ncc(-c3ccc(OC)nc3)c2c1 [Compound 4087, tert-butyl (2R,6S,7R,9R,13aS,14aR,16aS,Z)-2-(6-methoxy-4-(6-methoxypyridin-3-yl)isoquinolin-1-yloxy)-7,9-dimethyl-14a-(1-methylcyclopropylsulfonylcarbamoyl)-5,16-dioxo-1,2,3,5,6,7,8,9,10,11,13a,14,14a,15,16,16a-hexadecahydrocyclopropa[e]pyrrolo[1,2-a][1,4]diazacyclopentadecin-6-ylcarbamate] | < 5.46 | < 5.46 | – | – |
| COc1ccc2ncc(O[C@@H]3C[C@H]4C(=O)N[C@]5(C(=O)NS(=O)(=O)C6(CF)CC6)C[C@H]5/C=C\CC[C@@H](C)C[C@@H](C)[C@H](NC(=O)OC(C)(C)C(F)(F)F)C(=O)N4C3)nc2c1 [Compound 4088] | – | – | < 5.46 | < 5.46 |
| COc1ccc2ncc(O[C@@H]3C[C@H]4C(=O)N[C@]5(C(=O)NS(=O)(=O)C6(CF)CC6)C[C@H]5/C=C\CC[C@@H](C)C[C@@H](C)[C@H](NC(=O)OC(C)(C)C)C(=O)N4C3)nc2c1 [Compound 4089, tert-butyl (2R,6S,7R,9R,13aS,14aR,16aS,Z)-14a-(1-(fluoromethyl)cyclopropylsulfonylcarbamoyl)-2-(7-methoxyquinoxalin-2-yloxy)-7,9-dimethyl-5,16-dioxo-1,2,3,5,6,7,8,9,10,11,13a,14,14a,15,16,16a-hexadecahydrocyclopropa[e]pyrrolo[1,2-a][1,4]diazacyclopentadecin-6-ylcarbamate] | 4.82 to 103 | < 5.46 | – | – |
| COc1cc2ccnc(O[C@@H]3C[C@H]4C(=O)N[C@]5(C(=O)NS(=O)(=O)C6(CF)CC6)C[C@H]5/C=C\CC[C@@H](C)C[C@@H](C)[C@H](NC(=O)C5(C(F)(F)F)CC5)C(=O)N4C3)c2cc1F [Compound 4090, (2R,6S,7R,9R,13aS,14aR,16aS,Z)-2-(7-fluoro-6-methoxyisoquinolin-1-yloxy)-N-(1-(fluoromethyl)cyclopropylsulfonyl)-7,9-dimethyl-5,16-dioxo-6-(1-(trifluoromethyl)cyclopropanecarboxamido)-1,2,3,5,6,7,8,9,10,11,13a,14,14a,15,16,16a-hexadecahydrocyclopropa[e]pyrrolo[1,2-a][1,4]diazacyclopentadecine-14a-carboxamide] | < 5.46 | < 5.46 | – | – |
| COc1cc2ccnc(O[C@@H]3C[C@H]4C(=O)N[C@]5(C(=O)NS(=O)(=O)C6(CF)CC6)C[C@H]5/C=C\CC[C@@H](C)C[C@@H](C)[C@H](NC(=O)C(C)(C)C(F)(F)F)C(=O)N4C3)c2cc1F [Compound 4091, (2R,6S,7R,9R,13aS,14aR,16aS,Z)-2-(7-fluoro-6-methoxyisoquinolin-1-yloxy)-N-(1-(fluoromethyl)cyclopropylsulfonyl)-7,9-dimethyl-5,16-dioxo-6-(3,3,3-trifluoro-2,2-dimethylpropanamido)-1,2,3,5,6,7,8,9,10,11,13a,14,14a,15,16,16a-hexadecahydrocyclopropa[e]pyrrolo[1,2-a][1,4]diazacyclopentadecine-14a-carboxamide] | < 5.46 | < 5.46 | – | – |
| COc1cc2ccnc(O[C@@H]3C[C@H]4C(=O)N[C@]5(C(=O)NS(=O)(=O)C6(C(F)F)CC6)C[C@H]5/C=C\CC[C@@H](C)C[C@@H](C)[C@H](NC(=O)OC(C)(C)C(F)(F)F)C(=O)N4C3)c2cc1F [Compound 4093] | – | – | < 5.46 | < 5.46 |
| COc1cc2c(OC)cnc(O[C@@H]3C[C@H]4C(=O)N[C@]5(C(=O)NS(=O)(=O)C6(C(F)F)CC6)C[C@H]5/C=C\CC[C@@H](C)C[C@@H](C)[C@H](NC(=O)OC(C)(C)C(F)(F)F)C(=O)N4C3)c2cc1F [Compound 4095] | – | – | < 5.46 | < 5.46 |
| COc1cc2ccnc(O[C@@H]3C[C@H]4C(=O)N[C@]5(C(=O)NS(=O)(=O)C6(CF)CC6)C[C@H]5/C=C\CC[C@@H](C)C[C@@H](C)[C@H](NC(=O)c5ccccc5C(F)(F)F)C(=O)N4C3)c2cc1F [Compound 4096, (2R,6S,7R,9R,13aS,14aR,16aS,Z)-2-(7-fluoro-6-methoxyisoquinolin-1-yloxy)-N-(1-(fluoromethyl)cyclopropylsulfonyl)-7,9-dimethyl-5,16-dioxo-6-(2-(trifluoromethyl)benzamido)-1,2,3,5,6,7,8,9,10,11,13a,14,14a,15,16,16a-hexadecahydrocyclopropa[e]pyrrolo[1,2-a][1,4]diazacyclopentadecine-14a-carboxamide] | < 5.46 | < 5.46 | – | – |
| COc1cc2ccnc(O[C@@H]3C[C@H]4C(=O)N[C@]5(C(=O)NS(=O)(=O)C6(CF)CC6)C[C@H]5/C=C\CC[C@@H](C)C[C@@H](C)[C@H](NC(=O)c5ccc(F)cc5F)C(=O)N4C3)c2cc1F [Compound 4097, (2R,6S,7R,9R,13aS,14aR,16aS,Z)-6-(2,4-difluorobenzamido)-2-(7-fluoro-6-methoxyisoquinolin-1-yloxy)-N-(1-(fluoromethyl)cyclopropylsulfonyl)-7,9-dimethyl-5,16-dioxo-1,2,3,5,6,7,8,9,10,11,13a,14,14a,15,16,16a-hexadecahydrocyclopropa[e]pyrrolo[1,2-a][1,4]diazacyclopentadecine-14a-carboxamide] | < 5.46 | < 5.46 | – | – |
| C[C@@H]1CC/C=C\[C@@H]2C[C@@]2(C(=O)NS(=O)(=O)C2(C)CC2)NC(=O)[C@@H]2C[C@@H](Oc3cnc4cc(F)ccc4n3)CN2C(=O)[C@@H](NC(=O)OC(C)(C)C(F)(F)F)[C@H](C)C1 [Compound 4099] | – | – | < 5.46 | < 5.46 |
| CC[C@@H]1C[C@H](C)CC/C=C\[C@@H]2C[C@@]2(C(=O)NS(=O)(=O)C2(C)CC2)NC(=O)[C@@H]2C[C@@H](Oc3cnc4ccc(OC)cc4c3)CN2C(=O)[C@H]1NC(=O)OC(C)(C)C(F)(F)F [Compound 4100] | – | – | < 5.46 | < 5.46 |
| COc1cc2c(N3CCOCC3)cnc(O[C@@H]3C[C@H]4C(=O)N[C@]5(C(=O)NS(=O)(=O)C6(C)CC6)C[C@H]5/C=C\CC[C@@H](C)C[C@@H](C)[C@H](NC(=O)OC(C)(C)C(F)(F)F)C(=O)N4C3)c2cc1F [Compound 4101] | – | – | < 5.46 | < 5.46 |
| C[C@@H]1CC/C=C\[C@@H]2C[C@@]2(C(=O)NS(=O)(=O)C2(C)CC2)NC(=O)[C@@H]2C[C@@H](Oc3ncc(O)c4ccccc34)CN2C(=O)[C@@H](NC(=O)OC(C)(C)C(F)(F)F)[C@H](C)C1 [Compound 4103] | – | – | 4.82 to 103 | 4.82 to 103 |
